{"source": "patent US6407136B1", "about": "“1,4-dithiin and 1,4-dithiepin-1,1,4,4, tetroxide derivatives useful as antagonists of the human galanin receptor” (Ortho-McNeil Pharmaceutical, Inc., priority 1999, dated 2002)", "key": {"[1]": {"target": "T1, hGALR-1 contained in membranes from human Bowes melanoma cells (Homo sapiens, UniProt P47211)", "T1 construct": "hGALR-1 that is contained in membranes from human Bowes melanoma cells; endogenous in cells; host or cells: human Bowes melanoma cells (membranes)", "T1 sequence (P47211 1-349)": "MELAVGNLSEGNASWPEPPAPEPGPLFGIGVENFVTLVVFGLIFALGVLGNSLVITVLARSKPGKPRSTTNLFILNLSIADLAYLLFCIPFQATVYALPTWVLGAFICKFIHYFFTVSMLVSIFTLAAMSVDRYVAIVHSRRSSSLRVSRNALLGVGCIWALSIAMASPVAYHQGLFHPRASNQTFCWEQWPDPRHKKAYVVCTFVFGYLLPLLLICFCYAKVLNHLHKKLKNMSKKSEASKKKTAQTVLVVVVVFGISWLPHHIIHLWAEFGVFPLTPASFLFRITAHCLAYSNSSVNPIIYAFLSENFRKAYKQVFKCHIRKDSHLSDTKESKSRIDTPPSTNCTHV", "assay": "Human Galanin-1 Receptor Binding Assay (SPA, 125I human galanin)", "settings": "inhibition of 125I human galanin binding", "experimental": "Human Galanin-1 Receptor Binding Assay\nThis assay determines the concentration (IC50) of a test compound which prevents 50% of galanin from binding to the hGALR-1 that is contained in membranes from human Bowes melanoma cells bound to wheat germ agglutinin conjugated Scintillation Proximity Assay (SPA) beads. The IC50 value is obtained by measuring the effect of half log increment dilutions of the test compound in duplicate using a 96-well plate (eight-rows, 12-columns).\nThe SPA beads (500 mg) were dissolved in 12.5 mL of assay buffer composed of 20 mM DMSO-HEPES (pH 7.4), 0.1% bovine serum albumin, 2 mM MgCl2, 2 mM CaCl2, and protease inhibitors. Enough of this suspension for five plates (25 μL×5×96 wells=12000 μL) was dispensed into a 50 mL sterile Falcon tube. The amount of membranes required for five plates was then added (50 μg×5×96 wells), followed by 32.5 mL of 30% DMSO-HEPES buffer. The mixture was placed on a rotator and agitated for 0.5 hours and the non-specific binding sites on the beads were blocked by the addition of 5% [final] fetal bovine serum. Each well of the 96-well plate received 100 μL of this mixture.\nTo the control column (column 12) rows A and B was added 3.75 μL of a 300 μM solution of galantide in 30% DMSO-HEPES buffer, to rows C and D was added 3.75 μL of 30% DMSO-HEPES buffer and to rows E and F was added 3.75 μL of a 300 μM solution of galanin in 30% DMSO-HEPES buffer. In columns 1 through 11 were added solutions of the test compound in 30% DMSO-HEPES buffer starting at 30 μM and decreasing in concentration in half-log dilutions. A solution of radioactive ^125I human galanin (46.25 μL), prepared from 25 micro Curies of ^125I human galanin (2000 ci/mmol) and 500 μL of assay buffer, was added to each well. The plate was sealed with adhesive paper and incubated for 16 hr at room temperature before the quench-corrected bound radioactivity was measured in a Topcount® apparatus. For each dilution, the % inhibition of galanin binding was calculated as follows:\nTotal binding (T)=Mean counts/minute (cpm) in row C and D in column 12 Non-specific binding (NSB)=Mean cpm in row E and F in column 12 Total specific binding (TS)=T−NSB\nnet cpm in each well (N)=C−NSB\nThe IC50 values for each compound were calculated from the non-linear regression curve of the data using Prism® graphics software."}, "Rat Galanin-1 Receptor": {"target": "T2, Rat Galanin-1 Receptor (Rattus norvegicus, UniProt Q62805)", "T2 sequence (Q62805 1-346)": "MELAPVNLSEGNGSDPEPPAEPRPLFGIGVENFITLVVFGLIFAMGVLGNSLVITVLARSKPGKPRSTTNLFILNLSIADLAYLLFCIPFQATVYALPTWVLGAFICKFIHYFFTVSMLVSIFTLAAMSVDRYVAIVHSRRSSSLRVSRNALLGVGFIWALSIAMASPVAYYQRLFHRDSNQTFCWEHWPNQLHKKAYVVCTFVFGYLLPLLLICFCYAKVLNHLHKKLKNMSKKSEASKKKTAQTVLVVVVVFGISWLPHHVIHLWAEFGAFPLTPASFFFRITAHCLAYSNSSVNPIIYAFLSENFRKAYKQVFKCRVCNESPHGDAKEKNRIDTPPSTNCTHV", "assay": "Rat Galanin-1 Receptor Mediated Inhibition of Acetylcholine Release from Rat Brain Cortical Slices (superfusion)", "settings": "for Acetycholine Secretion, Stimulated / Acetycholine Secretion, Stimulated (% change): K+-evoked; for Acetycholine Secretion, Stimulated (% change) / Acetycholine Secretion, Basal (% change): percent in brackets, versus control", "quoted_text": "Rat brain cerebrocortical tissues were chopped into slices of 300×300×3,000 mm using a Mcllwain tissue chopper. […] After incubation, the slices were washed three times with ice-cold physiological solution and resuspended in 6 ml of cold solution. Equal aliquots of the tissue suspension were placed in each of 6 parallel superfusion chambers (Hugo Sachs Elektronik, March-Hugstetten, Germany). A circular piece of nylon mesh (pore size 250 um) was placed just below each chamber outlet in order to prevent the loss of tissue. The chambers were perfused against gravity with oxygenated Krebs-Ringer containing 1 mM physostigmine hemisulfate at a flow rate of 1 ml/min. […] The onset of superfusion was defined as time zero (t0). Starting at 30 min after t0, 10 min fractions of the effluent were collected.\nRelease of [^3H]acetylcholine was induced by superfusing tissues for 30 sec with 65 mM K^+-Krebs-Ringer solution (made by isomolar replacement of NaCl with KCl). Four potassium pulses were given respectively at 40 min (S1), 70 min (S2), 100 min (S3) and 130 min (S4) after t0. […] To permit construction of concentration-effect curves, concentrations of agents were increased 10 fold between each stimulus.\nFollowing perfusion, the tissue was homogenized in 1 ml ethanol and aliquots of superfusates (0.4 ml) and tissue homogenates (0.04 ml) were added to 5 ml of Scintsafe PlusTM 50% (Fisher Scientific, Pittsburgh, Pa.) and radioactivity counted by liquid scintillation spectrometry. The total ^3H content in this procedure consisted mainly of [^3H]acetylcholine.\nTritium (^3H) efflux into the superfusate was calculated as the fraction of tritium content in the slices or synaptosomes at the onset of the respective collection period. For calculation of the stimulated tritium overflow, the estimated basal efflux (the average of the 10 min fractions immediately before and after each stimulation) was subtracted from the total tritium efflux during the 10 min fraction which began with the 30 sec K^+ pulse. This difference was then used to calculate the percent of K^+-evoked release of acetylcholine.\nIn order to quantify the in vitro effect of a drug on stimulated tritium outflow, the ratio of the fraction released by a given pulse, Sn, to that evoked by S1, was determined. Data presented below are expressed as the mean fractional tritium release ±S.E.M. Statistical differences between treatments were tested by the two-tailed Student's t test or the two factor ANOVA as appropriate. Individual differences in the dose-response curve was evaluated by the Newman-Keul multiple comparison."}, "[2]": {"settings": "Table II, formula (II) compounds, read-out: hGAL IC50"}, "[3]": {"settings": "10 μM + GAL, mean fractional tritium release"}}, "note": "Where two headings read alike, the source gives them in different places."}
{"compound": "O=S1(=O)C=C(c2ccc(Br)cc2)S(=O)(=O)CC1", "note": "[Cmpd 2]", "values": [{"measurement": "IC50", "setting": "[1]; Table I, formula (I) compounds, read-out: HGAL IC50", "value": 1000, "unit": "nM"}]}
{"compound": "COc1cccc(C2=CS(=O)(=O)CCCS2(=O)=O)c1", "note": "[Cmpd 15]", "values": [{"measurement": "IC50", "setting": "[1]; [2]", "value": 1100, "unit": "nM"}]}
{"compound": "O=S1(=O)C=C(c2cccc(F)c2)S(=O)(=O)CCC1", "note": "[Cmpd 16]", "values": [{"measurement": "IC50", "setting": "[1]; [2]", "value": 1300, "unit": "nM"}, {"measurement": "Acetycholine Secretion, Stimulated", "setting": "Rat Galanin-1 Receptor; 1 μM + GAL, mean fractional tritium release", "value": 6.31}, {"measurement": "Acetycholine Secretion, Stimulated (% change)", "setting": "Rat Galanin-1 Receptor; 1 μM + GAL", "value": "−23.9", "unit": "%"}, {"measurement": "Acetycholine Secretion, Basal (% change)", "setting": "Rat Galanin-1 Receptor; 1 μM + GAL", "value": "−38.9", "unit": "%"}, {"measurement": "Acetycholine Secretion, Stimulated", "setting": "Rat Galanin-1 Receptor; [3]", "value": 8.27}, {"measurement": "Acetycholine Secretion, Basal", "setting": "Rat Galanin-1 Receptor; [3]", "value": 2.28}, {"measurement": "Acetycholine Secretion, Basal (% change)", "setting": "Rat Galanin-1 Receptor; 10 μM + GAL", "value": "−37", "unit": "%"}]}
{"compound": "O=S1(=O)C=C(c2ccc(I)cc2)S(=O)(=O)CCC1", "note": "[Cmpd 17]", "values": [{"measurement": "Acetycholine Secretion, Stimulated (% change)", "setting": "Rat Galanin-1 Receptor; 1 μM + GAL", "value": "−35.2", "unit": "%"}, {"measurement": "Acetycholine Secretion, Basal (% change)", "setting": "Rat Galanin-1 Receptor; 1 μM + GAL", "value": "−39.2", "unit": "%"}, {"measurement": "Acetycholine Secretion, Stimulated (% change)", "setting": "Rat Galanin-1 Receptor; 10 μM + GAL", "value": "−22.3", "unit": "%"}, {"measurement": "Acetycholine Secretion, Basal (% change)", "setting": "Rat Galanin-1 Receptor; 10 μM + GAL", "value": "−37", "unit": "%"}]}
{"compound": "O=S1(=O)C=C(c2ccc(Cl)cc2)S(=O)(=O)CCC1", "note": "[Cmpd 21]", "values": [{"measurement": "IC50", "setting": "[1]; [2]", "value": 1900, "unit": "nM"}]}
